{
  "source": "ChEMBL document CHEMBL5038635",
  "about": "“Discovery of Salidroside-Derivated Glycoside Analogues as Novel Angiogenesis Agents to Treat Diabetic Hind Limb Ischemia” (J Med Chem, 2022)",
  "key": {"[1]": {"test_system": "C2C12", "assay": "Upregulation of […] protein expression in mouse C2C12 cells at 30 uM by Western blot analysis", "type": "functional, cell-based"}, "[2]": {"assay": "Efflux ratio of Apparent permeability across basolateral to apical side over apical to basolateral side in human Caco-2 cells"}, "[3]": {"test_system": "C2C12", "assay": "Apoptotic rate in hyperglycemia-treated mouse C2C12 cells assessed as late apoptotic cells at 30 uM by AnnexinV-FITC/PI staining based flow cytometric analysis (reference value: 10.44 %)", "type": "functional"}, "[4]": {"test_system": "C2C12", "assay": "Reversal of hyperglycemia-induced PDGF-BB protein level reduction in mouse C2C12 cells measured at 30 uM by Western blot analysis", "type": "functional, cell-based"}, "[5]": {"test_system": "C2C12", "assay": "Angiogenic activity in mouse C2C12 cells assessed as accumulation PDGF-BB protein expression at 300 uM by Western blot analysis", "type": "functional, cell-based"}, "[6]": {"assay": "Toxicity in diabetic HLI C57BL/6 mouse model assessed as lung pathology at 30 mg/kg, IM administered by HE staining based assay", "type": "organism-based", "conditions": "in vivo"}, "[7]": {"test_system": "C2C12", "assay": "Induction of cell migration in mouse C2C12 cells at 30 uM under hyperglycemic condition incubated for 24 hrs by crystal violet dye based transwell chamber assay", "type": "functional"}, "[8]": {"test_system": "C2C12", "assay": "Reversal of cell migration in mouse C2C12 cells at 30 uM under hyperglycemic condition incubated for 24 hrs by crystal violet dye based transwell chamber assay", "type": "functional"}, "[9]": {"test_system": "C2C12", "assay": "Upregulation of ANG1 protein expression in mouse C2C12 cells at 30 uM by Western blot analysis", "type": "functional, cell-based"}, "[10]": {"test_system": "C2C12", "assay": "Induction of F-actin polymerization in mouse C2C12 cells at 30 uM pretreated with compound for 12 hr followed by hypoxic condition for 24 hrs by phalloidin staining based confocal microscopy", "type": "functional, cell-based", "conditions": "time 36.0 hrs"}, "[11]": {"test_system": "HUVEC", "assay": "Antiangiogenesis activity in human HUVEC cells assessed as suppression of cell migration using conditioned medium of mouse C2C12 cells with silenced HIF-1alpha treated at 30 uM under hyperglycemic condition for 12 hrs followed by hypoxia for 24 hrs in presence of PDGF-BB inhibitor CP868596 by crystal violet dye based transwell assay", "type": "functional", "conditions": "time 36.0 hrs"}, "[12]": {"test_system": "Mus musculus", "assay": "Angiogenesis activity in nondiabetic HLI C57BL/6 mouse model assessed as as increase in blood perfusion recovery at 30 mg/kg, im administered for 14 days", "type": "functional, organism-based", "conditions": "time 14.0 day"}, "[13]": {"assay": "Water solubility of the compound by HPLC analysis"}, "[14]": {"test_system": "C2C12", "assay": "Induction of proliferation of hyperglycemia-induced mouse C2C12 cell apoptosis assessed as decrease in Annexin V/PI-positive cells at 30 uM pretreated with compound under hyperglycemia condition for 12 hr followed by hypoxia for 24 hrs", "type": "functional, cell-based", "conditions": "time 36.0 hrs"}, "[15]": {"assay": "Microsomal stability in rat liver microsomes assessed as compound remaining after 30 min by HPLC analysis", "type": "ADME, Microsome", "conditions": "read-out: Stability"}, "[16]": {"test_system": "Mus musculus", "assay": "Antidiabetic activity in diabetic HLI C57BL/6 mouse model assessed as effect on blood glucose level at 15 mg/kg administered intramuscular", "type": "functional, organism-based"}, "[17]": {"test_system": "C2C12", "assay": "Angiogenesis activity in mouse C2C12 cells assessed as increase in cell migration at 30 uM under hyperglycemic condition for 12 hrs followed by hypoxia for 24 hrs presence of MeOE2 inhibitor by crystal violet dye based transwell assay", "type": "functional", "conditions": "time 36.0 hrs"}, "[18]": {"test_system": "C2C12", "assay": "Upregulation of ANGPTL4 protein expression in mouse C2C12 cells at 30 uM by Western blot analysis", "type": "functional, cell-based"}, "[19]": {"test_system": "C2C12", "assay": "Induction proliferation of mouse C2C12 cells at 30 uM pretreated with compound in hyperglycemia condition for 12 hr followed by hypoxia condition for 24 hrs presence of MeOE2 inhibitor by EdU-incorporation assay", "type": "functional, cell-based", "conditions": "time 36.0 hrs"}, "[20]": {"assay": "Toxicity in diabetic HLI C57BL/6 mouse model assessed as effect on body weight at 15 to 100 mg/kg, im administered measured after 21 days", "type": "organism-based", "conditions": "in vivo, 504 h, dose 15-100 mg/kg, time 21 day"}, "[21]": {"test_system": "HUVEC", "assay": "Angiogenic activity in human HUVEC cells assessed as suppression of F-actin polymerization at 30 uM using conditioned medium of mouse C2C12 cells treated at 30 uM under hyperglycemic condition for 12 hrs followed by hypoxia for 12 hrs by phalloidin staining based confocal microscopy", "type": "functional, cell-based", "conditions": "time 24.0 hrs"}, "[22]": {"test_system": "C2C12", "assay": "Increase in VEGF-A protein expression level in […] mouse C2C12 cells at 30 uM by Western blot analysis", "type": "functional, cell-based"}, "[23]": {"test_system": "C2C12", "assay": "Reversal of hyperglycemia-induced VEGF-A protein level reduction in mouse C2C12 cells measured at 30 uM by Western blot analysis", "type": "functional, cell-based"}, "[24]": {"assay": "Toxicity in diabetic HLI C57BL/6 mouse model assessed as heart pathology at 30 mg/kg, IM administered by HE staining based assay", "type": "organism-based", "conditions": "in vivo"}, "[25]": {"test_system": "HUVEC", "assay": "Induction proliferation of human HUVEC cells assessed as increase in number of EdU-positive cells using conditioned medium of mouse C2C12 cells treated at 30 uM under hyperglycemic condition for 12 hrs followed by hypoxia for 24 hrs by EdU-incorporation assay", "type": "functional", "conditions": "time 36 hrs"}, "[26]": {"test_system": "MOVAS-1", "assay": "Angiogenesis activity in mouse MOVAS-1 assessed as increase of cell migration using conditioned medium of mouse C2C12 cells with silenced HIF-1alpha treated at 30 uM under hyperglycemic condition for 12 hrs followed by hypoxia for 24 hrs by crystal violet dye based transwell assay", "type": "functional", "conditions": "time 36.0 hrs"}, "[27]": {"test_system": "C2C12", "assay": "Reversal of hyperglycemia-induced VEGF-A protein level reduction in mouse C2C12 cells measured at 30 uM by ELISA", "type": "functional, cell-based"}, "[28]": {"test_system": "HUVEC", "assay": "Induction proliferation of human HUVEC cells assessed as increase in number of EdU-positive cells using conditioned medium of mouse C2C12 cells with silenced HIF-1alpha treated at 30 uM under hyperglycemic condition for 12 hrs followed by hypoxia for 24 hrs in presence of VEGFR inhibitor Ki8751 by EdU-incorporation assay", "type": "functional, cell-based", "conditions": "time 36.0 hrs"}, "[29]": {"test_system": "C2C12", "assay": "Angiogenesis activity in mouse C2C12 cells assessed as decrease in apoptotic rate at 30 uM under hyperglycemia condition presence of MeOE2 inhibitor by Annexin V/PI staining based Flowcytometry method", "type": "functional, cell-based"}, "[30]": {"test_system": "C2C12", "assay": "Apoptotic rate in mouse C2C12 cells with silenced HIF-1alpha assessed as early apoptotic cells at 30 uM by AnnexinV-FITC/PI staining based FACS analysis (reference value: 4.02 %)", "type": "functional"}},
  "note": "Calls of active or inactive are those of the source. The calls are words filed in the database; no cut-off is given here.",
  "data": [
    {"smiles": "COc1ccc(Cc2cccc(O[C@@H]3O[C@H](CO)[C@@H](O)[C@H](O)[C@H]3O)c2)cc1", "values": [
      {"measurement": "Activity", "setting": "[1]", "value": "Active"},
      {"measurement": "efflux ratio", "setting": "[2]", "value": 1.07},
      {"measurement": "Activity", "setting": "[3]", "value": 3.94, "unit": "%"},
      {"measurement": "Activity", "setting": "[4]", "value": "Active"},
      {"measurement": "inhibition", "setting": "[5]", "value": "Active"},
      {"measurement": "Activity", "setting": "[6]", "value": "Non-Toxic"},
      {"measurement": "Activity", "setting": "[7]", "value": "Active"},
      {"measurement": "Activity", "setting": "[8]", "value": "Active"},
      {"measurement": "Activity", "setting": "[9]", "value": "Active"},
      {"measurement": "Activity", "setting": "[10]", "value": "Active"},
      {"measurement": "Activity", "setting": "[11]", "value": "inactive"},
      {"measurement": "Activity", "setting": "[12]", "value": "Active"},
      {"measurement": "solubility", "setting": "[13]", "value": 1910, "unit": "µg/mL"},
      {"measurement": "Activity", "setting": "[14]", "value": "Active"},
      {"measurement": "remaining at 0.5 h", "setting": "[15]", "value": 79.4, "unit": "%"},
      {"measurement": "Activity", "setting": "[16]", "value": "Active"},
      {"measurement": "Activity", "setting": "[17]", "value": "Active"},
      {"measurement": "Activity", "setting": "[18]", "value": "Active"},
      {"measurement": "Activity", "setting": "[19]", "value": "inactive"},
      {"measurement": "Activity", "setting": "[20]", "value": "Non-Toxic"},
      {"measurement": "Activity", "setting": "[21]", "value": "Active"},
      {"measurement": "Activity", "setting": "[22]", "value": "inactive"},
      {"measurement": "Activity", "setting": "[23]", "value": "Active"},
      {"measurement": "Activity", "setting": "[24]", "value": "Non-Toxic"},
      {"measurement": "fold change (FC)", "setting": "[25]", "value": 2},
      {"measurement": "Activity", "setting": "[26]", "value": "Active"},
      {"measurement": "Activity", "setting": "[27]", "value": "Active"},
      {"measurement": "Activity", "setting": "[28]", "value": "inactive"},
      {"measurement": "Activity", "setting": "[29]", "value": "inactive"},
      {"measurement": "Activity", "setting": "[30]", "value": 3.18, "unit": "%"}
    ]}
  ]
}
